ChEMBL document CHEMBL1142411, “Antileishmanial compounds from Cordia fragrantissima collected in Burma (Myanmar)” (J Nat Prod, 2008)
Converted amounts (≈) assume the structure as drawn. Peptide text beside a SMILES is read from it. * marks the point of attachment. Cbz = O=C(OCc1ccccc1)*

How the values were obtained:
Leishmania major = test: Antileishmanial activity against Leishmania major promastigotes after 48 hrs by MTT method; type: functional, organism-based
Leishmania guyanensis = test: Antileishmanial activity against Leishmania guyanensis promastigotes after 48 hrs by MTT method; type: functional, organism-based
Huh-7 = test: Cytotoxicity against human HuH7 cells by XTT method; type: functional, cell-based
[1] = Cytotoxicity against african green monkey COS7 cells by XTT method; type: cell-based; conditions: Chlorocebus aethiops, COS-7
Leishmania panamensis = test: Antileishmanial activity against Leishmania panamensis promastigotes after 48 hrs by MTT method; type: functional, organism-based

With `C=C[C@@]1(C)Cc2c(O)ccc(O)c2C[C@H]1C(=C)C` the IC50 (Leishmania major) was 4.5 µg/mL (≈ 18.4 µM).

Work on `CC1=C2C(=O)c3c(O)ccc(O)c3CC2(C)CCC1=O` (racemic) yielded an IC50 (Leishmania major) of 81.4 µg/mL (≈ 299 µM), an IC50 (Leishmania guyanensis) of 7 µg/mL (≈ 25.7 µM) and an IC50 (Huh-7) of 71.8 µg/mL. The IC50 [1] was 51.7 µg/mL and the IC50 (Leishmania panamensis) was 13 µg/mL (≈ 47.7 µM).

For `CC1(O)CCCC2(C)Cc3c(O)ccc(O)c3CC12` (racemic), the IC50 (Leishmania major) was 2.7 µg/mL (≈ 10.3 µM), the IC50 (Leishmania guyanensis) was 3 µg/mL (≈ 11.4 µM) and the IC50 (Huh-7) was 41.7 µg/mL. The IC50 [1] was over 100 µg/mL and the IC50 (Leishmania panamensis) was 1.8 µg/mL (≈ 6.86 µM).

`C/C(C=O)=C\CCC(C)(O)/C=C\c1cc(O)ccc1O` (racemic) gave an IC50 (Leishmania major) of over 25 µg/mL, an IC50 (Huh-7) of over 100 µg/mL and an IC50 [1] of over 100 µg/mL.

`CC1=C2C(=O)c3c(OC(=O)c4ccc(Br)cc4)ccc(OC(=O)c4ccc(Br)cc4)c3CC2(C)CCC1=O` (racemic) gave an IC50 (Leishmania major) of 23.5 µg/mL (≈ 36.8 µM), an IC50 (Huh-7) of over 100 µg/mL and an IC50 [1] of over 100 µg/mL.

Compound `CC(=O)Oc1ccc(OC(C)=O)c2c1CC1(C)CCC(=O)C(C)=C1C2=O` (racemic) has an IC50 (Leishmania major) of 80.4 µg/mL (≈ 226 µM), an IC50 (Huh-7) of 65.5 µg/mL and an IC50 [1] of 50.7 µg/mL.

In the case of `C=C[C@@]1(C)Cc2c(OC(C)=O)ccc(OC(C)=O)c2C[C@H]1C(=C)C` [ACETYLCORDIAQUINOL C], the IC50 (Leishmania major) is reported as 1.4 µg/mL (≈ 4.26 µM), the IC50 (Huh-7) is reported as 60.9 µg/mL and the IC50 [1] is reported as 20.1 µg/mL.

For `C/C(C=O)=C\CC/C(C)=C/Cc1cc(O)ccc1O` [ALLIODORIN], the IC50 (Leishmania major) was 7 µg/mL (≈ 26.9 µM), the IC50 (Leishmania guyanensis) was 2 µg/mL (≈ 7.68 µM) and the IC50 (Huh-7) was 44.8 µg/mL. The IC50 [1] was 31.9 µg/mL and the IC50 (Leishmania panamensis) was 1.8 µg/mL (≈ 6.91 µM).

Work on `C[C@@H]1[C@H](O)[C@@H](C)/C=C/C=C/C=C/C=C/C=C/C=C/C=C/[C@H](O[C@@H]2O[C@H](C)[C@@H](O)[C@H](N)[C@@H]2O)C[C@@H]2O[C@](O)(C[C@@H](O)C[C@@H](O)[C@H](O)CC[C@@H](O)C[C@@H](O)CC(=O)O[C@H]1C)C[C@H](O)[C@H]2C(=O)O` [AMPHOTERICIN B] yielded an IC50 (Leishmania major) of under 0.1 µg/mL, an IC50 (Leishmania guyanensis) of under 0.1 µg/mL and an IC50 (Leishmania panamensis) of under 0.1 µg/mL.

Work on `CC1=CCC[C@@]2(C)CC3=C(C[C@@H]12)C(=O)C=CC3=O` [CORDIACHROME A] yielded an IC50 (Leishmania major) of 4.1 µg/mL (≈ 16.9 µM), an IC50 (Huh-7) of 61.1 µg/mL and an IC50 [1] of 22.5 µg/mL.

`C=C1CCC[C@@]2(C)CC3=C(C[C@@H]12)C(=O)C=CC3=O` [CORDIACHROME B] showed an IC50 (Leishmania major) of 2.5 µg/mL (≈ 10.3 µM), an IC50 (Huh-7) of 71.5 µg/mL and an IC50 [1] of 14.6 µg/mL.

Work on `C=C[C@@]1(C)CC2=C(C[C@H]1C(=C)C)C(=O)C=CC2=O` [Cordiachrome C] yielded an IC50 (Leishmania major) of 21.1 µg/mL (≈ 87.1 µM), an IC50 (Leishmania guyanensis) of 6 µg/mL (≈ 24.8 µM) and an IC50 (Leishmania panamensis) of 5.5 µg/mL (≈ 22.7 µM).

With `CC(C)C[C@@H](C=O)NC(=O)[C@H](CC(C)C)NC(=O)[C@H](CC(C)C)NC(=O)OCc1ccccc1` [MG-132] (Cbz-Leu-Leu-Leu-aldehyde) the IC50 (Huh-7) was under 10 µM and the IC50 [1] was under 10 µM.
